Test results published in the NIST ThermoML archive (doi:10.1021/je500380x).
Numbers after ± are expanded uncertainties.

Test: mn = molality of the nth substance listed, in mol/kg
Settings: 100 kPa, Liquid; for mass density: Vibrating tube method; for electrical conductivity: Alternating current cell with electrodes; for viscosity: Falling or rolling sphere viscometry

CCC(=O)OCCN1CCNCC1 [2-(piperazin-1-yl)ethyl propionate] + O
Settings	electrical conductivity, 303.15 K [S/m]	electrical conductivity, 308.15 K [S/m]	mass density, 298.15 K [kg/m3]	mass density, 303.15 K [kg/m3]	viscosity, 303.15 K [mPa·s]	viscosity, 308.15 K [mPa·s]
m1 = 0.05	0.296 ± 0.003	0.327 ± 0.003	–	997.53 ± 0.11	0.828 ± 0.01	0.75 ± 0.009
m1 = 0.0999	0.538 ± 0.005	0.595 ± 0.006	–	999.38 ± 0.11	0.864 ± 0.011	0.783 ± 0.01
m1 = 0.1996	0.941 ± 0.009	1.042 ± 0.01	–	1003.06 ± 0.11	0.93 ± 0.011	0.839 ± 0.01
m1 = 0.3	1.28 ± 0.013	1.416 ± 0.014	–	1006.88 ± 0.11	0.985 ± 0.012	0.887 ± 0.011
m1 = 0.3997	1.56 ± 0.016	1.729 ± 0.017	–	1010.59 ± 0.11	1.058 ± 0.013	0.951 ± 0.012
m1 = 0.5001	1.78 ± 0.018	1.97 ± 0.02	1015.99 ± 0.11	1014.36 ± 0.11	1.145 ± 0.014	1.027 ± 0.013
m1 = 0.5992	1.97 ± 0.02	2.19 ± 0.02	1019.83 ± 0.11	1018.15 ± 0.11	1.232 ± 0.015	1.102 ± 0.014
m1 = 0.6993	2.11 ± 0.02	2.36 ± 0.02	1023.57 ± 0.11	1021.82 ± 0.11	1.335 ± 0.016	1.19 ± 0.015
m1 = 0.7997	2.23 ± 0.02	2.49 ± 0.03	1027.65 ± 0.11	1025.85 ± 0.11	1.45 ± 0.018	1.292 ± 0.016
m1 = 0.9003	2.31 ± 0.02	2.59 ± 0.03	1031.4 ± 0.11	1029.53 ± 0.11	1.587 ± 0.02	1.407 ± 0.017
m1 = 0.9988	2.37 ± 0.02	2.66 ± 0.03	1035.35 ± 0.11	1033.42 ± 0.11	1.722 ± 0.021	–
m1 = 1.199	2.4 ± 0.02	2.7 ± 0.03	1043.15 ± 0.11	1041.09 ± 0.11	2.079 ± 0.026	–
m1 = 1.402	2.35 ± 0.02	2.65 ± 0.03	1051.04 ± 0.12	1048.83 ± 0.12	2.519 ± 0.031	–
m1 = 1.6	2.22 ± 0.02	2.53 ± 0.03	1058.61 ± 0.12	1056.27 ± 0.12	3.163 ± 0.039	–
m1 = 1.802	2.04 ± 0.02	2.33 ± 0.02	1066.22 ± 0.12	1063.74 ± 0.12	3.903 ± 0.048	–
m1 = 1.998	1.828 ± 0.018	2.11 ± 0.02	1073.41 ± 0.12	1070.79 ± 0.12	4.953 ± 0.061	–
m1 = 2.2	1.59 ± 0.016	1.85 ± 0.019	1080.44 ± 0.12	1077.7 ± 0.12	6.458 ± 0.08	–
m1 = 2.402	1.37 ± 0.014	1.6 ± 0.016	1087.27 ± 0.12	1084.44 ± 0.12	8.415 ± 0.1	–
m1 = 2.6	1.109 ± 0.011	1.305 ± 0.013	1093.23 ± 0.12	1090.28 ± 0.12	12.17 ± 0.15	–
m1 = 2.798	0.878 ± 0.009	1.06 ± 0.011	1098.69 ± 0.13	1095.67 ± 0.13	16.6 ± 0.2	–
m1 = 3.002	0.722 ± 0.007	0.848 ± 0.009	1103.78 ± 0.13	1100.68 ± 0.13	22.77 ± 0.28	–
